Data taken from patent publication US10800791B2, “Triazole ACC inhibitors and uses thereof” (Gilead Apollo, LLC, priority 2015, dated 2020).
Values after ≈ are worked out from the molar mass of the structure shown. Where two headings read alike, the source gives them in different places.

Columns and labels:
[1] = tested on: Septoria tritici (St); experiment: Growth inhibition assay of fungal pathogens, St; assay type: cell-based; conditions: Zymoseptoria tritici, 48 h
Summary of the method: (§1)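 Inhibition percentages reflect 48 h OD600 and visual scores relative to a 2% DMSO control. Test concentrations were 50, 10, 2 ppm or 2, 0.4, 0.08 ppm final, applied to spores in 17% V8 medium.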

[2] = tested on: C. albicans; experiment: Antifungal Activity Assay (broth microtiter MIC), C. albicans; assay type: cell-based, Candida albicans; conditions: Candida albicans, ATCC90028, 48 h
Summary of the method: (§2)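 CLSI M27-A3 broth microdilution in RPMI 1640+MOPS, final inoculum 2.5×10^3 CFU/mL from overnight Sabouraud cultures grown at 35 °C. MIC read visually at 48 h against growth control.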

[3] = tested on: Botrtyis cinerea (Bc); experiment: Growth inhibition assay of fungal pathogens, Bc; assay type: cell-based; conditions: 48 h
Summary of the method: as §1

[4] = tested on: Diplodia maydis (Dm); experiment: Growth inhibition assay of fungal pathogens, Dm; assay type: cell-based; conditions: Stenocarpella maydis, 48 h
Summary of the method: as §1

[5] = tested on: C. krusei; experiment: Antifungal Activity Assay (broth microtiter MIC), C. krusei; assay type: cell-based, Candida krusei; conditions: Pichia kudriavzevii, ATCC6258, 48 h
Summary of the method: as §2

[6] = tested on: Fusarium virguliforme (Fv); experiment: Growth inhibition assay of fungal pathogens, Fv; assay type: cell-based; conditions: 48 h
Summary of the method: as §1

[7] = tested on: C. parapsilosis; experiment: Antifungal Activity Assay (broth microtiter MIC), C. parapsilosis; assay type: cell-based, Candida parapsilosis; conditions: Lodderomyces parapsilosis, ATCC22019, 48 h
Summary of the method: as §2

[8] = tested on: Fusarium moniliforme (Fm); experiment: Growth inhibition assay of fungal pathogens, Fm; assay type: cell-based; conditions: for IC90: Fusarium verticillioides, 48 h, read-out: Concentration at 90% Inhibition Fm
Summary of the method: as §1

[9] = tested on: Rhizoctonia solani (Rs); experiment: Growth inhibition assay of fungal pathogens, Rs; assay type: cell-based; conditions: 48 h
[10] = biological target: fungal (fACC2) (UniProt Q00955); conditions: read-out: fACC2 (in vitro ACC2 Inhibition Assay, IC50), ADP-Glo, 5 nM ACC2, 20 μM ATP, 20 μM acetyl-CoA
[11] = tested on: Collectotrichum graminicola (Cg); experiment: Growth inhibition assay of fungal pathogens, Cg; assay type: cell-based; conditions: 48 h
Summary of the method: as §1

[12] = read-out: Concentration at 90% Inhibition St, Septoria tritici, growth inhibition at 48 hours vs 2% DMSO control
[13] = read-out: Concentration at 90% Inhibition St, Septoria tritici, growth inhibition vs 2% DMSO control at 48 hours
[14] = read-out: MIC, C. albicans ATCC 90028, Table 3a, 3 replicates, MIC recorded at 48 h
[15] = read-out: MIC, C. albicans ATCC 90028, Table 3b (additional results), 3 replicates, MIC recorded at 48 h
[16] = read-out: Concentration at 90% Inhibition Bc, Botrtyis cinerea, growth inhibition at 48 hours vs 2% DMSO control
[17] = read-out: Concentration at 90% Inhibition Bc, Botrtyis cinerea, growth inhibition vs 2% DMSO control at 48 hours
[18] = read-out: Concentration at 90% Inhibition Dm, Diplodia maydis, growth inhibition at 48 hours vs 2% DMSO control
[19] = read-out: Concentration at 90% Inhibition Dm, Diplodia maydis, growth inhibition vs 2% DMSO control at 48 hours
[20] = read-out: MIC, C. krusei ATCC 6258, Table 3a, 3 replicates, MIC recorded at 48 h
[21] = read-out: MIC, C. krusei ATCC 6258, Table 3b (additional results), 3 replicates, MIC recorded at 48 h
[22] = read-out: Concentration at 90% Inhibition Fv, Fusarium virguliforme, growth inhibition at 48 hours vs 2% DMSO control
[23] = read-out: Concentration at 90% Inhibition Fv, Fusarium virguliforme, growth inhibition vs 2% DMSO control at 48 hours
[24] = read-out: MIC, C. parapsilosis ATCC 22019, Table 3a, 3 replicates, MIC recorded at 48 h
[25] = read-out: MIC, C. parapsilosis ATCC 22019, Table 3b (additional results), 3 replicates, MIC recorded at 48 h
[26] = Fusarium moniliforme, growth inhibition at 48 hours vs 2% DMSO control
[27] = read-out: Concentration at 90% Inhibition Rs, Rhizoctonia solani, mycelial plugs, growth inhibition at 48 hours vs 2% DMSO control
[28] = read-out: Concentration at 90% Inhibition Rs, Rhizoctonia solani, mycelial plugs, growth inhibition vs 2% DMSO control at 48 hours
[29] = read-out: Concentration at 90% Inhibition Cg, Collectotrichum graminicola, growth inhibition at 48 hours vs 2% DMSO control
[30] = read-out: Concentration at 90% Inhibition Cg, Collectotrichum graminicola, growth inhibition vs 2% DMSO control at 48 hours

fungal (fACC2), sequence (Q00955 whole entry): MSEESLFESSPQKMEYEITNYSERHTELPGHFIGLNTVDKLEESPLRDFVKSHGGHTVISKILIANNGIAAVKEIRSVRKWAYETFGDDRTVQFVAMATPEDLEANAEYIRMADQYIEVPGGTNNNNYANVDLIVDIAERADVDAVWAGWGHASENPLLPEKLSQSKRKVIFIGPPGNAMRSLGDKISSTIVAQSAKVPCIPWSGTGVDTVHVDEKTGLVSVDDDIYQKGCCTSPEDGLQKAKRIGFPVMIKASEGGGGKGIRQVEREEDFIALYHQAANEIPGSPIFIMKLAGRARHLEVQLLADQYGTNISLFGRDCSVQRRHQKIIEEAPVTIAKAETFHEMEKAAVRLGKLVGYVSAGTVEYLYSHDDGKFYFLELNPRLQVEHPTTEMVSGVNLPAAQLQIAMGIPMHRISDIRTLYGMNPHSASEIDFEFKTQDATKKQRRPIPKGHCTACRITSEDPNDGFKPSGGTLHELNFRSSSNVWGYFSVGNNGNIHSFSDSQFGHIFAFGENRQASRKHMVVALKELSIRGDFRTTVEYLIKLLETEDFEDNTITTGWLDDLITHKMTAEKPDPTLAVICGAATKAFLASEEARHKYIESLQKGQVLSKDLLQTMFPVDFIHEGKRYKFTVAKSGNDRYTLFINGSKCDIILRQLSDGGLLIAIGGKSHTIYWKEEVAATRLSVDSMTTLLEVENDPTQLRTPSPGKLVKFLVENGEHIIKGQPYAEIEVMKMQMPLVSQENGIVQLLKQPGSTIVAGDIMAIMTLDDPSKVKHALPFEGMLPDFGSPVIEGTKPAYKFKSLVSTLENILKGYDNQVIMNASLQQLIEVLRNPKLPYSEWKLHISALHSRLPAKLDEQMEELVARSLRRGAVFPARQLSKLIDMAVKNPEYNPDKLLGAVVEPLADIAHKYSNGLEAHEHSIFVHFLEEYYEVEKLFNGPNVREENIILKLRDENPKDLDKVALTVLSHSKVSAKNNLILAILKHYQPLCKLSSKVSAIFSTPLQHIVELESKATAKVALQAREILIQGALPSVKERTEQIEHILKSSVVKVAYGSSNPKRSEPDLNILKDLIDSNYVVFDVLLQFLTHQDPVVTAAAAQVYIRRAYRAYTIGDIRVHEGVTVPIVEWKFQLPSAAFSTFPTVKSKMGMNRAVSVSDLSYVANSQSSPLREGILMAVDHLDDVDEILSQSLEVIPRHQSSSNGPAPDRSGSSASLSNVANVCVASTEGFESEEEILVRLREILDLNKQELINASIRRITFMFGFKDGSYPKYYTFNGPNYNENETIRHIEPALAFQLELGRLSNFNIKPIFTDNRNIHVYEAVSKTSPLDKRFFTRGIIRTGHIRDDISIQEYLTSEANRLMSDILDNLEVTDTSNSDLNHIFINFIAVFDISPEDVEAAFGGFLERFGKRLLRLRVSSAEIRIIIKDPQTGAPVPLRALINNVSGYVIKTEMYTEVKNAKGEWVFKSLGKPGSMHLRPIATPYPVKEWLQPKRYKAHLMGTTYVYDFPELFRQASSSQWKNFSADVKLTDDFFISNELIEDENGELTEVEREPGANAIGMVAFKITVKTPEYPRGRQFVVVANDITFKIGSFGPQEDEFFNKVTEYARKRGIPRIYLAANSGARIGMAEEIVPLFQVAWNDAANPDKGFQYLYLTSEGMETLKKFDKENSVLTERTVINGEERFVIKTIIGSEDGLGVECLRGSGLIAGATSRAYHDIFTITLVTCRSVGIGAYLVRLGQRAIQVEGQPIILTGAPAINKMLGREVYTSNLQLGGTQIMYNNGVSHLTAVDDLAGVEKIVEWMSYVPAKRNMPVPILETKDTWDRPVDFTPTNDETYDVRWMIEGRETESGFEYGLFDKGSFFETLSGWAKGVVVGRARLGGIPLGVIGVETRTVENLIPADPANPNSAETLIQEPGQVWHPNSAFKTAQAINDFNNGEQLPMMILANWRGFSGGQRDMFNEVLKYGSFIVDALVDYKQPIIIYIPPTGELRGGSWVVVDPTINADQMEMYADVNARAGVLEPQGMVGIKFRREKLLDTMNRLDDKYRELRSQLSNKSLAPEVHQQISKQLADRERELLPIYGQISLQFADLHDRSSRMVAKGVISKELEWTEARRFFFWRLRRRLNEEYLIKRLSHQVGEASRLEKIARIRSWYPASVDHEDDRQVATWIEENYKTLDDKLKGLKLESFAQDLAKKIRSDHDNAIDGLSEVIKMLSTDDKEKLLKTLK

SMILES | IC90 [1, 12] | IC90 [1, 13] | MIC [2, 14] | MIC [2, 15] | IC90 [3, 16] | IC90 [3, 17] | IC90 [4, 18] | IC90 [4, 19] | MIC [5, 20] | MIC [5, 21] | IC90 [6, 22] | IC90 [6, 23] | MIC [7, 24] | MIC [7, 25] | Concentration at 90% Inhibition Fm [8, 26] | IC90 [8] | IC90 [9, 27] | IC90 [9, 28] | IC50 ([10]; Table 2a) | IC50 ([10]; Table 2b, additional results) | other results
C=CCNC(=O)C(C)(C)n1c(=O)c2c(C)c(-n3nccn3)sc2n(C[C@H](OC2CCOCC2)c2cc(F)ccc2OC)c1=O [Compound I-70, (R)—N-allyl-2-(1-(2-(5-fluoro-2-methoxyphenyl)-2-((tetrahydro-2H-pyran-4-yl)oxy)ethyl)-5-methyl-2,4-dioxo-6-(2H-1,2,3-triazol-2-yl)-1,4-dihydrothieno[2,3-d]pyrimidin-3(2H)-yl)-2-methylpropanamide] | > 50 µg/mL | > 50 µg/mL | 0.25 to 1 µg/mL (≈ 0.399 to 1.6 µM) | 0.25 to 1 µg/mL (≈ 0.399 to 1.6 µM) | 2 µg/mL (≈ 3.19 µM) | 2 µg/mL (≈ 3.19 µM) | 2 µg/mL (≈ 3.19 µM) | 2 µg/mL (≈ 3.19 µM) | 0.25 to 1 µg/mL (≈ 0.399 to 1.6 µM) | 0.25 to 1 µg/mL (≈ 0.399 to 1.6 µM) | 0.4 µg/mL (≈ 0.638 µM) | 0.4 µg/mL (≈ 0.638 µM) | 0.25 to 1 µg/mL (≈ 0.399 to 1.6 µM) | 1.01 to 2 µg/mL (≈ 1.61 to 3.19 µM) | AA (compound concentration of 0.08 ppm at 90% inhibition of fungal pathogens) | 0.08 µg/mL (≈ 0.128 µM) | 0.4 µg/mL (≈ 0.638 µM) | 0.4 µg/mL (≈ 0.638 µM) | 1 to 5 nM | 1 to 5 nM | IC90 [11, 29]: 2 µg/mL (≈ 3.19 µM); IC90 [11, 30]: 2 µg/mL (≈ 3.19 µM)
C=CCN(C)C(=O)C(C)(C)n1c(=O)c2c(C)c(-n3nccn3)sc2n(C[C@H](OC2CCOCC2)c2cc(F)ccc2OC)c1=O [Compound I-71, (R)—N-allyl-2-(1-(2-(5-fluoro-2-methoxyphenyl)-2-((tetrahydro-2H-pyran-4-yl)oxy)ethyl)-5-methyl-2,4-dioxo-6-(2H-1,2,3-triazol-2-yl)-1,4-dihydrothieno[2,3-d]pyrimidin-3(2H)-yl)-N,2-dimethylpropanamide] | – | – | – | – | – | – | – | – | – | – | – | – | – | – | – | – | – | – | 1 to 5 nM | 1 to 5 nM | IC90 ([1]; Septoria tritici, growth inhibition at 48 hours vs 2% DMSO control, read-out: Concentration at 90% Inhibition St): > 50 µg/mL; IC90 ([1]; Septoria tritici, growth inhibition vs 2% DMSO control at 48 hours, read-out: Concentration at 90% Inhibition St): > 50 µg/mL; MIC ([2]; Table 3a, ATCC 90028, 3 replicates, MIC recorded at 48 h, read-out: MIC, C. albicans ATCC 90028): 0.25 to 1 µg/mL (≈ 0.39 to 1.56 µM); MIC ([2]; Table 3b (additional results), ATCC 90028, 3 replicates, MIC recorded at 48 h, read-out: MIC, C. albicans ATCC 90028): 0.25 to 1 µg/mL (≈ 0.39 to 1.56 µM); IC90 ([3]; Botrtyis cinerea, growth inhibition at 48 hours vs 2% DMSO control, read-out: Concentration at 90% Inhibition Bc): 0.4 µg/mL (≈ 0.624 µM); IC90 ([3]; Botrtyis cinerea, growth inhibition vs 2% DMSO control at 48 hours, read-out: Concentration at 90% Inhibition Bc): 0.4 µg/mL (≈ 0.624 µM); IC90 ([4]; Diplodia maydis, growth inhibition at 48 hours vs 2% DMSO control, read-out: Concentration at 90% Inhibition Dm): 0.4 µg/mL (≈ 0.624 µM); IC90 ([4]; Diplodia maydis, growth inhibition vs 2% DMSO control at 48 hours, read-out: Concentration at 90% Inhibition Dm): 0.4 µg/mL (≈ 0.624 µM); MIC ([5]; Table 3a, ATCC 6258, 3 replicates, MIC recorded at 48 h, read-out: MIC, C. krusei ATCC 6258): 0.25 to 1 µg/mL (≈ 0.39 to 1.56 µM); MIC ([5]; Table 3b (additional results), ATCC 6258, 3 replicates, MIC recorded at 48 h, read-out: MIC, C. krusei ATCC 6258): 0.25 to 1 µg/mL (≈ 0.39 to 1.56 µM); IC90 ([6]; growth inhibition at 48 hours vs 2% DMSO control, read-out: Concentration at 90% Inhibition Fv): 2 µg/mL (≈ 3.12 µM); IC90 ([6]; growth inhibition vs 2% DMSO control at 48 hours, read-out: Concentration at 90% Inhibition Fv): 2 µg/mL (≈ 3.12 µM); MIC ([7]; Table 3a, ATCC 22019, 3 replicates, MIC recorded at 48 h, read-out: MIC, C. parapsilosis ATCC 22019): 0.25 to 1 µg/mL (≈ 0.39 to 1.56 µM); MIC ([7]; Table 3b (additional results), ATCC 22019, 3 replicates, MIC recorded at 48 h, read-out: MIC, C. parapsilosis ATCC 22019): 1.01 to 2 µg/mL (≈ 1.58 to 3.12 µM); IC90 [8, 26]: 0.08 µg/mL (≈ 0.125 µM); IC90 ([8]; Fusarium moniliforme, growth inhibition vs 2% DMSO control at 48 hours): 0.08 µg/mL (≈ 0.125 µM); IC90 ([9]; mycelial plugs, growth inhibition at 48 hours vs 2% DMSO control, read-out: Concentration at 90% Inhibition Rs): 0.08 µg/mL (≈ 0.125 µM); IC90 ([9]; mycelial plugs, growth inhibition vs 2% DMSO control at 48 hours, read-out: Concentration at 90% Inhibition Rs): 0.08 µg/mL (≈ 0.125 µM); IC90 ([11]; Collectotrichum graminicola, growth inhibition at 48 hours vs 2% DMSO control, read-out: Concentration at 90% Inhibition Cg): 0.08 µg/mL (≈ 0.125 µM); IC90 ([11]; Collectotrichum graminicola, growth inhibition vs 2% DMSO control at 48 hours, read-out: Concentration at 90% Inhibition Cg): 0.08 µg/mL (≈ 0.125 µM)
C=CCO[C@@H](Cn1c(=O)n(C(C)(C)C(=O)NC(C)C)c(=O)c2c(C)c(-n3nccn3)sc21)c1cc(F)ccc1OC [Compound I-72, (R)-2-(1-(2-(allyloxy)-2-(5-fluoro-2-methoxyphenyl)ethyl)-5-methyl-2,4-dioxo-6-(2H-1,2,3-triazol-2-yl)-1,4-dihydrothieno[2,3-d]pyrimidin-3(2H)-yl)-N-isopropyl-2-methylpropanamide] | > 50 µg/mL | > 50 µg/mL | 2.1 to 4 µg/mL (≈ 3.59 to 6.84 µM) | 1.01 to 2 µg/mL (≈ 1.73 to 3.42 µM) | 2 µg/mL (≈ 3.42 µM) | 2 µg/mL (≈ 3.42 µM) | 2 µg/mL (≈ 3.42 µM) | 2 µg/mL (≈ 3.42 µM) | 0.25 to 1 µg/mL (≈ 0.428 to 1.71 µM) | 0.25 to 1 µg/mL (≈ 0.428 to 1.71 µM) | 0.4 µg/mL (≈ 0.684 µM) | 0.4 µg/mL (≈ 0.684 µM) | 1.1 to 2 µg/mL (≈ 1.88 to 3.42 µM) | 1.01 to 2 µg/mL (≈ 1.73 to 3.42 µM) | AA (compound concentration of 0.08 ppm at 90% inhibition of fungal pathogens) | 0.08 µg/mL (≈ 0.137 µM) | 0.4 µg/mL (≈ 0.684 µM) | 0.4 µg/mL (≈ 0.684 µM) | 1 to 5 nM | 1 to 5 nM | IC90 [11, 29]: 2 µg/mL (≈ 3.42 µM); IC90 [11, 30]: 2 µg/mL (≈ 3.42 µM)
